Values after ≈ are worked out from the molar mass of the structure shown. Read-outs that look alike come from different tables or passages of the source.
Assays:
[1] = test system: Bacillus subtilis; experiment: Minimal inhibitory concentration (MIC) determination; type: cell-based; settings: Bacillus subtilis
Experimental: (§1) The minimal inhibitory concentration (MIC) of tested compounds was determined following the NCCLS standard. The experiments were conducted in 96-well microtiter plates using two-fold dilutions in Muller-Hilton broth with (Streptococcus pneumonia) or without blood (Bacillus subtilis, Enterococcus faecalis, Staphylococcus aureus). Exponentially growing cells at 5×10^5 cells/ml were incubated with test compounds at various concentrations.

[2] = test system: Enterococcus faecalis; experiment: as above; type: cell-based; settings: Enterococcus faecalis
Experimental: as §1

[3] = test system: Staphylococcus aureus; experiment: as above; type: cell-based; settings: Staphylococcus aureus
Experimental: as §1

[4] = test system: Streptococcus pneumoniae; experiment: as above; type: cell-based; settings: Streptococcus pneumoniae
Experimental: as §1

[5] = biological target: T1, H. pylori PBP1a (Helicobacter pylori, UniProt O25319, /I22V/I24V/I79V/M17V/S417T/V16I, form not given); type: binding; settings: read-out: IC50 (fluorescence anisotropy assay, displacement of F-Moe); 100 nM F-Moe, 10 μg/ml H. pylori PBP1a, 10 mM Tris pH 8.0, 100 mM NaCl
T1 sequence (O25319 1-659 V16I/M17V/I22V/I24V/G44S/I79V/I101V/F125L/G242S/E323D/D336E/E406V/S417T/D508E): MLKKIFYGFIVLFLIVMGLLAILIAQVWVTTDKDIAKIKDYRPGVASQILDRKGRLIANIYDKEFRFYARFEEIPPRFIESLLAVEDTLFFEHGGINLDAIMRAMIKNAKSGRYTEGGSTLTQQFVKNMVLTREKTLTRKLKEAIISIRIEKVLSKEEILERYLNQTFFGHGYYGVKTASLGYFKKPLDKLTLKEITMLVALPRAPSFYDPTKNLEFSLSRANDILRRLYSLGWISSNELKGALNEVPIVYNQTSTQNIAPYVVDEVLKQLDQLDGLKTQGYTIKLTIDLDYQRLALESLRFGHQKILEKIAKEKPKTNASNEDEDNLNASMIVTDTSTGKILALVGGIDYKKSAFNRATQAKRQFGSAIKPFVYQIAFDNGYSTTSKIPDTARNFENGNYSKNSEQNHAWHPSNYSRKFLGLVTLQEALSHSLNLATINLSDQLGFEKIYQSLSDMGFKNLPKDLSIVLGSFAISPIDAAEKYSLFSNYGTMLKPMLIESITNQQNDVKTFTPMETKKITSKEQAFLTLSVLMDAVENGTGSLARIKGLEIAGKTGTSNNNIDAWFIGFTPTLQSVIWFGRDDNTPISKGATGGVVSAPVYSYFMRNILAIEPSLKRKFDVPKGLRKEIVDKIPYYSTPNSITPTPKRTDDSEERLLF
Experimental: Fluorescence anisotropy measurements were carried out in triplicates in the wells of 384-well plates using a laser fluorimetry equipped with a 488 nm laser (IsoCyte, Blueshift Biotech, Inc., Sunnyvale, Calif., USA). Various buffers, salts, pH values, and divalent cations (Ca^++, Mg^++, Co^++) were optimized for fluorescence anisotropy measurements. […] The scanning focus was above the plate bottom to avoid detection interferences. Data analysis was performed with the proprietary software, BlueImage (Blueshift Biotech Inc). Fluorescence anisotropy values (A) were calculated using the equation: A=(/∥−G*/⊥)/(/∥+2G*/⊥), where /∥ is the fluorescence intensity of emitted light parallel to excitation, /⊥ is the fluorescence intensity of emitted light perpendicular to excitation, and G is the […] that corrects for instrument bias. The G factor is experimentally determined for each run using the probe-only well as the basal an isotropy.
For the development of an assay for inhibitor screening, F-Moe was pre-incubated with H. pylori PBP1a and then competed with unlabeled Moe A at various concentrations.
For displacement assay, the initial condition contained 40 μl of 100 nM F-Moe, 10 μg/ml H. pylori PBP1a in 10 mM Tris, pH 8.0, 100 mM NaCl. Aliquots of compound stock solution were added and the anisotropy was monitored after 5 minutes of equilibration. The data from the displacement assay was used to calculate the inhibition constant (KI) and IC50 value of an inhibitor using the complete competitive binding model
[formula] The KI value was determined by plotting the total inhibitor concentration (C) versus the molar ratio of bound/free F-Moe and fitting the resulting curve to [Eq. 2], C=[(KI/KD*X)+1][RT−(LST*X)/(X+1)−KD*X [Eq. 2] […] The reported value is the average of four different runs.
For IC50 determination, the fraction of bound fluorescent probe is plotted versus the log value of the competitor concentration (C).

[6] = B. subtilis ATCC23857, Muller-Hilton broth, 18 h to 24 h, 37° C., read-out: MIC B. subtilis (ATCC23857)
[7] = E. faecalis ATCC29212, Muller-Hilton broth, 18 h to 24 h, 37° C., read-out: MIC E. faecalis (ATCC29212)
[8] = S. aureus ATCC29213, Muller-Hilton broth, 18 h to 24 h, 37° C., read-out: MIC S. aureus (ATCC29213)
[9] = S. pneumoniae ATCC49619, Muller-Hilton broth with blood, 18 h to 24 h, 37° C., read-out: MIC S. pneumoniae (ATCC49619)

| Structure (SMILES) | MIC [1, 6] [µM] | MIC [2, 7] [µM] | MIC [3, 8] [µM] | MIC [4, 9] [µM] | IC50 [5] [µM] | MIC ([1]; ATCC23857, read-out: MIC B. subtilis (ATCC23857)) [µM] | MIC ([2]; ATCC29212, read-out: MIC E. faecalis (ATCC29212)) [µM] | MIC ([3]; ATCC29213, read-out: MIC S. aureus (ATCC29213)) [µM] | MIC ([4]; ATCC49619, read-out: MIC S. pneumoniae (ATCC49619)) [µM] |
| --- | --- | --- | --- | --- | --- | --- | --- | --- | --- |
| C/C(=C\c1ccc(C(=O)O)cc1)c1ccc2c(c1)C(C)(C)CCC2(C)C [Compound 8, (E)-4-(2-(5,5,8,8,-tetramethyl-5,6,7,8-tetrahydronaphthalen-2-yl)prop-1-enyl)benzoic acid] | 4 (≈ 1.39 µg/mL) | > 4 | > 4 | > 4 | 9.3 |  |  |  |  |
| O=C1OC(c2ccc(Br)cc2)=C/C1=C/c1ccc([N+](=O)[O-])o1 [Compound 6, (Z)-5-(4-bromophenyl)-3-((5-nitrofuran-2-yl)methylene)furan-2(3H)-one] | 0.25 (≈ 0.0905 µg/mL) | 0.25 (≈ 0.0905 µg/mL) | 1 (≈ 0.362 µg/mL) | 4 (≈ 1.45 µg/mL) | 34 |  |  |  |  |
| C=C(CC=C(C)CCC=C(C)C)CCC(C)(C)C=CCCC(C)=CCOC(COP(=O)(O)OC1OC(C(N)=O)C(C)(O)C(OC(N)=O)C1OC1OC(COC2OC(CO)C(O)C(O)C2O)C(OC2OC(C)C(OC3OC(c4nc(C(=O)CCC(=O)O)nn4-c4ccc([N+](=O)[O-])c(C(=O)NCCN)c4)C(O)C(O)C3O)C(O)C2NC(C)=O)C(O)C1NC(C)=O)C(=O)O (stereo not drawn) [Compound 2] | 2.5 (≈ 4.54 µg/mL) | 10 (≈ 18.2 µg/mL) | 1.25 (≈ 2.27 µg/mL) | 20 (≈ 36.4 µg/mL) | 2.1 |  |  |  |  |
| O=C1/C(=N\Nc2nccs2)C(c2ccccc2)=NN1c1ccccc1 [Compound 7] | 0.25 (≈ 0.0869 µg/mL) | 1 (≈ 0.347 µg/mL) | 4 (≈ 1.39 µg/mL) |  | 3.7 |  |  |  |  |
| C=C(CC=C(C)CCC=C(C)C)CCC(C)(C)C=CCCC(C)=CCOC(COP(=O)(O)OC1OC(C(N)=O)C(C)(O)C(OC(N)=O)C1OC1OC(COC2OC(CO)C(O)C(O)C2O)C(OC2OC(C)C(OC3OC(c4nc(C(=O)CCC(=O)O)nn4-c4ccc([N+](=O)[O-])c(C(=O)NCCNC(=O)CCCCCCC(=O)NCCNC(=O)c5cc(-n6nc(C(=O)CCC(=O)O)nc6C6OC(OC7C(C)OC(OC8C(COC9OC(CO)C(O)C(O)C9O)OC(OC9C(OP(=O)(O)OCC(OCC=C(C)CCC=CC(C)(C)CCC(=C)CC=C(C)CCC=C(C)C)C(=O)O)OC(C(N)=O)C(C)(O)C9OC(N)=O)C(NC(C)=O)C8O)C(NC(C)=O)C7O)C(O)C(O)C6O)ccc5[N+](=O)[O-])c4)C(O)C(O)C3O)C(O)C2NC(C)=O)C(O)C1NC(C)=O)C(=O)O (stereo not drawn) [Compound 4] |  |  |  |  | 0.92 | 1.25 (≈ 4.72 µg/mL) | 5 (≈ 18.9 µg/mL) | 0.625 (≈ 2.36 µg/mL) | 20 (≈ 75.5 µg/mL) |

— US8916540B2, “Antibiotic compositions and related screening methods” (Academia Sinica, priority 2008, dated 2014)
